A short description of test [1]: Luminescence Cell-Based Dose Retest to Confirm Inhibitors of Cancer Stem Cells. [Related pubchem assays (depositor defined):AID2717, AID2721]. It counts as functional. The conditions noted are these: Homo sapiens.
For a further test, the target named is Cytochrome P450 2D6 (Homo sapiens, UniProt P10635).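 Note: CYP2D6 member of a cytochrome P450 panel assay.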
The test system of test [2] is Streptococcus sp. 'group A'. Description: Streptococcus pyogenes SK(-)GAS viability under kanamycin – luminescence, BacTiterGlo, confirmation, counter-screen for streptokinase expression inhibitor project, dose response (AID 1900). Type of test: functional, organism-based. (In general: The purpose of a counterscreen is to sort out artefacts and off-target activity.)

The target of the next test is T1, Streptokinase A (Streptococcus pyogenes serotype M1, UniProt P10520).
T1 sequence (P10520 whole entry): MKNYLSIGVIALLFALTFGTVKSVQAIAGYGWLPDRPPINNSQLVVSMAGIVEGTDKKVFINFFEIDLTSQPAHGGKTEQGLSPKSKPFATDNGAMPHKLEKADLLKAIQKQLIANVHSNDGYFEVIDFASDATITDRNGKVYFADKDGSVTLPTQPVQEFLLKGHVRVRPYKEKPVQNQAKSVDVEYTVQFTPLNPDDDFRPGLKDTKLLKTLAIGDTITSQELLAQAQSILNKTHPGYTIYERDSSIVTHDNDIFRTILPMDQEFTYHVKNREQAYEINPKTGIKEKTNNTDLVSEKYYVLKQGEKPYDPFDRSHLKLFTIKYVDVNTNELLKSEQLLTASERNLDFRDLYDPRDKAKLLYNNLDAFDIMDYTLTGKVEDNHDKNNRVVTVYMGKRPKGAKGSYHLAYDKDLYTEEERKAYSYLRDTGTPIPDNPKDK
Briefly: viability-normalized secreted streptokinase activity reduction – plasminogen activation absorbance, OD405, dose response (AID 1914).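 Note: secreted streptokinase activity via plasminogen activation per viability signal from cell pellet.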 Type of test: functional, Streptococcus pyogenes M1 GAS.

The next test relates to Streptococcus. Briefly: GAS UMAA2166 growth inhibition – luminescence, BacTiterGlo, counter-screen for streptokinase expression inhibitor project, dose response (AID 1915).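 Note: potency for reduction of bacterial viability or growth.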 It counts as functional, organism-based.
Test [3] can be described thus: Trypanosoma cruzi growth suppression in host cells – NIH3T3 host cells, beta-gal luminescence, confirmation (AID 2044).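 Note: intracellular parasites grown in NIH/3T3 mouse fibroblasts as host cells; luminescent beta-galactosidase reporter signal from transgenic T. cruzi replicating inside host cells; inhibitors lower the luminescence signal.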 Type of test: functional, cell-based.
The nature of test [4]: NIH3T3 cell viability loss – ATP luminescence, mouse fibroblasts, counter-screen, dose response (AID 2010).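 Note: cells exposed to compound for about 90 hours before reading.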 It counts as functional, cell-based.
Another test has as its system INS1. Briefly: INS-1E survival protection against cytokine death – cell-based, luminescence, retest, dose response (AID 449756).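 Note: cell death triggered by IL-1 beta plus TNF-alpha plus IFN-gamma mixture; protective hits raise ATP signal compared with cytokine alone wells.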 It counts as functional. The conditions noted are these: Rattus norvegicus.
Test [5] concerns the target T2, Heat shock factor protein 1 (Mus musculus, UniProt P38532).
T2 sequence (P38532 whole entry): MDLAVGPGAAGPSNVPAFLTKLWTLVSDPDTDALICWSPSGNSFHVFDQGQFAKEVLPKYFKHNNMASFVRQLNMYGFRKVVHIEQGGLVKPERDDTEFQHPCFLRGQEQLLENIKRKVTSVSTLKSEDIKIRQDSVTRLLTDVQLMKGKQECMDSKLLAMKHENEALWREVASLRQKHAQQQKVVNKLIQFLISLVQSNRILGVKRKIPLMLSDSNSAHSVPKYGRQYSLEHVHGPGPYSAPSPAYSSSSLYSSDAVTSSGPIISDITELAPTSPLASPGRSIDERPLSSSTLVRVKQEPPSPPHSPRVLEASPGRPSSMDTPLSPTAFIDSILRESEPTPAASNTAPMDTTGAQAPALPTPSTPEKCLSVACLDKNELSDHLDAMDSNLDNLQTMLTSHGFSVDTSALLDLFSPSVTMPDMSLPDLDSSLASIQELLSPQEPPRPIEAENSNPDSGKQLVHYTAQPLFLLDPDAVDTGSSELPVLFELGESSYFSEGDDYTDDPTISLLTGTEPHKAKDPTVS
Briefly: decrease of HSF1-responsive luciferase luminescence – cell-based, NIH3T3, dose retest, confirmation (AID 2382).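 Note: NIH3T3 fibroblasts with HSF1-driven luciferase reporter stressed by proteasome inhibitor MG132; luminescence from HSF1-driven luciferase expression after 8 hours of MG132 stress.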 It counts as functional.

Test [6] can be described thus: luciferase reporter signal suppression in cells – H4 neuroglioma cells, luminescence, dose response (AID 1990). It counts as functional, cell-based. For orientation: In a reporter assay the amount or activity of a reporter protein is the signal.
Test [7] can be described thus: Luminescence Cell-Based Dose Response HTS to Identify Inhibitors of 5'UTR Stem-Loop Driven Prion Protein mRNA Translation in H4 Neuroglioblastoma Cells. [Related pubchem assays: 1827 (Project Summary), 1813 (Primary HTS)]. Type of test: functional.

Among the data in ChEMBL document CHEMBL1201862, “PubChem BioAssay data set” (2004) are AC50 and EC50 values, retold here.

Molecules are shown by their SMILES. Calls of active or inactive are those of the source. Cut-off read from the data, not from the text of the source, for most assays here: actives have a measured EC50 and inactives only a lower limit. Bounds are passed on as bounds.

Cytochrome P450 2D6, sequence (P10635 whole entry): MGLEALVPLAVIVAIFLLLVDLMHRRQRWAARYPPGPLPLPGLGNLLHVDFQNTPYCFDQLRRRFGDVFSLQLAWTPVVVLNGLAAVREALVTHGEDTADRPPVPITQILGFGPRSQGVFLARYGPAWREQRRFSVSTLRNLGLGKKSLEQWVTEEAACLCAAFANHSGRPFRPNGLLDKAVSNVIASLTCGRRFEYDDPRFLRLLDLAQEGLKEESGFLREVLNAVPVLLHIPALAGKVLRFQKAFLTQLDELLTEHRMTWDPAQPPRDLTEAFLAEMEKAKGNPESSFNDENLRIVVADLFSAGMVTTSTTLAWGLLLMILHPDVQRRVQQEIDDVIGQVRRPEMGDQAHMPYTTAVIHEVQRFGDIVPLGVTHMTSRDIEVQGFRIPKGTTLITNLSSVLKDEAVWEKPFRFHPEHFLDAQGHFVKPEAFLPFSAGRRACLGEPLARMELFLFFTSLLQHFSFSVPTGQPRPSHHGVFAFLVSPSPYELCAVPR

By AC50 is commonly meant the midpoint of the concentration-response curve, whichever way the signal moves. As to `COc1cccc(Nc2nc(-c3ccccc3)nc3ccccc23)c1`, the AC50 in [1] is 5.53 µM (active). `O=C(CSc1nnc(SCc2cccc3ccccc23)s1)c1ccc2c(c1)OCO2`: the AC50 on Cytochrome P450 2D6 is 7.94 µM (inconclusive). By EC50 is commonly meant the concentration at which the effect is half-maximal. `COc1ccccc1CN1CN(S(=O)(=O)c2ccccc2)c2nc3ccccc3nc21`: the EC50 in test [2] was 47.6 µM (active); on Streptokinase A it was 55.1 µM (active); in the test with Streptococcus, > 150 µM (not active). In the case of `Cc1c(CCOC(=O)c2cc([N+](=O)[O-])cc([N+](=O)[O-])c2)sc[n+]1CC(=O)c1ccccc1`, the EC50 was 1.97 µM (active) in test [3] and > 60 µM (not active) in test [4]. In the case of `O=C(/C=C/c1ccc(F)cc1)c1ccccc1Br`, in test [1], the AC50 is 3.87 µM (active). As for `COc1ccc(S(=O)(=O)NCC(c2cccnc2)N2CCN(Cc3ccccc3)CC2)cc1C` (stereo not given), the results for the EC50 in [3] and in test [4] were 0.678 µM (active) and > 60 µM (not active), respectively. With `CCOC(=O)N1CCN(C(=O)C(CC)n2nc(C)c3sc4ccccc4c3c2=O)CC1` (stereo not given), at Cytochrome P450 2D6, the AC50 was 39.8 µM (inconclusive). In the case of `CC1CCN(c2nc(-c3ccc(F)cc3)cc(C(F)(F)F)n2)CC1`, the EC50 in [2] was 11.6 µM (active); on Streptokinase A, 4.61 µM (active); in the test on Streptococcus it was 17.5 µM (active). Regarding `Cc1cccc(NC(=O)c2ccc([N+](=O)[O-])s2)c1C`, the concentration giving a half-maximal response (EC50) in test [3] is 0.691 µM (active); in test [4] it was > 60 µM (not active). Also, in the test with INS1, the concentration at half-maximal activity (AC50) was 12 µM (active). Turning to `O=C(/C=C/c1ccc(F)cc1)c1cc(Br)ccc1O`, the concentration at half-maximal activity (AC50) in test [1] is 13.1 µM (active).

For the molecule `Cc1ccccc1NC(S)=NCC1CCN(C(C)c2ccccc2)C1` (stereo not given), the EC50 in test [3] is 1.1 µM (active); in [4], > 60 µM (not active). The like results for `O=C(NCC(c1cccnc1)N1CCN(c2ccccc2F)CC1)Oc1ccccc1` (stereo not given) were, in that order, 0.401 µM (active) and > 60 µM (not active). The corresponding values for `CCN(CCCNC(=O)CCCOc1cc(=O)n(C)c2ccccc12)Cc1ccccc1` are 0.281 µM (active) and > 60 µM (not active). The like results for `Cc1ccc(CSCCNS(=O)(=O)c2ccc([N+](=O)[O-])cc2)cc1` were, in that order, 0.939 µM (active) and > 60 µM (not active). In the case of `COc1ccc(O)c(C(=O)c2cnc3nc4ccccc4n3c2)c1`, the AC50 with INS1 is 1.23 µM (active). On to `CC(C)C(=O)N1CCN(c2ccccc2NC(=O)COc2ccc(C3CCCCC3)cc2)CC1`, for which the figures for the EC50 (in test [2]; on Streptokinase A; with Streptococcus) were 15.8 µM (active), 18.9 µM (inconclusive) and > 150 µM (not active), respectively. Turning to `c1csc(CN2CC3(CCNCC3)C2)n1`, the half-maximal activity concentration (AC50) on Cytochrome P450 2D6 was 39.8 µM (inconclusive). On the same count and under the same terms, for `COC(=O)c1ccccc1NC(=O)c1cc2nc(C3CC3)cc(C(F)(F)F)n2n1` the value was 3.16 µM (inconclusive). On the same count and under the same terms, the value for `C[N+]1(C)[C@@H]2CC[C@H]1CC(OC(=O)c1c[nH]c3ccccc13)C2` (stereo not given in full) was 31.6 µM (inconclusive); that for `CCCNC(=O)CSc1nc(-c2cccs2)cc(C(F)(F)F)n1` was 3.16 µM (inconclusive). As for `CC(C)(C)c1ccc(Oc2cccc(C3CC(=O)C(C4NCCc5ccccc54)C(=O)C3n3cncn3)c2)cc1` (stereo not given), the results for the 50% effective concentration (EC50) (in test [2]; at Streptokinase A; with Streptococcus) were 71.1 µM (active), > 150 µM (not active) and > 150 µM (not active), respectively. As for `CN1C(=O)C(=Cc2ccc(N3CCCCCC3)o2)C(=O)N(C)C1=S`, the AC50 on Cytochrome P450 2D6 was 20 µM (inconclusive). In the case of `COC(=O)c1[nH]c2cc(C)ccc2c1NC(=O)CN1CCCc2ccccc21`, the EC50 in test [3] was 0.99 µM (active); in test [4], > 60 µM (not active).

Turning to `C[C@@H](N)[C@@H](C)Cc1ccccc1`, the AC50 at Cytochrome P450 2D6 was 3.98 µM (inconclusive).

Regarding `O=C(Nc1cccnc1)c1ccc([N+](=O)[O-])s1`, the AC50 in the test with INS1 was 7.27 µM (active). In the case of `CCN1CCN(C(S)=Nc2sc(C)c(-c3ccccc3)c2C(=O)OC)CC1`, the AC50 in test [1] is 3.65 µM (active). Consider `CCC1Oc2ccc(C)cc2N(CC(=O)N(Cc2cccnc2)Cc2ccc(C)o2)C1=O` (stereo not given), for which the values for the EC50 in test [3] and in test [4] were 0.166 µM (active) and > 30 µM (not active), respectively. For `CCOC(=O)c1cccc(-[n+]2c(-c3ccccc3)cc(-c3ccccc3)cc2-c2ccccc2)c1.[O-][Cl+3]([O-])([O-])[O-]`, the AC50 in the test on INS1 is 2.68 µM (active). As for `CC(=O)NCc1ccc(C(=O)CCl)s1`, the figures for the EC50 in test [3] and in test [4] were 3.21 µM (active) and 3.9 µM (active), respectively. Turning to `CCCCCCSc1cc(-c2nc3cnccn3c2NCc2ccccc2)ccc1OC`, the 50% effective concentration (EC50) is 4.3 µM (active) in test [2], 16.7 µM (active) on Streptokinase A and 12.9 µM (active) in the test on Streptococcus. As to `CSc1nnc2ccc(-c3ccc(C)cc3)nn12`, the EC50 (in test [2]; at Streptokinase A; with Streptococcus) was > 150 µM (not active) throughout. On to `O=C(c1ccccc1)c1ccc(OCCCN2CCCC2)cc1`, for which the EC50 in [3] is 0.889 µM (active); in test [4] it was > 60 µM (not active). The like results for `CCOc1ccc(CN2CCC(n3nccc3NC(=O)c3ccccc3OC)CC2)cc1` were, in that order, 0.997 µM (active) and > 60 µM (not active).

As to `Cn1cccc1C(=O)NC(=O)COC(=O)C12CC3CC(CC(O)(C3)C1)C2`, the EC50 in [5] is 0.372 µM (active). For `CCCCn1c(N)c(N(CCC(C)C)C(=O)c2ccc([N+](=O)[O-])s2)c(=O)[nH]c1=O`, the results for the EC50 in [3] and in test [4] were 0.997 µM (active) and > 60 µM (not active), respectively.

As to `Cc1cc(C)c2cc(CN(CCO)C(=O)Nc3ccc(Cl)cc3)c(O)nc2c1`, the EC50 in test [6] was 15.8 µM (active); in test [7], 33.3 µM (active).

Regarding `COc1ccc(NC(=O)c2ccc3c(c2)NC(=O)CS3)cc1S(=O)(=O)Nc1ccc(Br)cc1`, the figures for the EC50 (in test [2]; on Streptokinase A; with Streptococcus) were 4.17 µM (active), > 150 µM (not active) and 26.3 µM (active), respectively. In the case of `CC(C)(C)NC(=O)CSC(=Nc1ccc(F)cc1)NC#N`, the AC50 at Cytochrome P450 2D6 is 25.1 µM (inconclusive). For the molecule `Cc1ccc(O)c(C(=O)CC(=O)c2ccc(C(C)(C)C)cc2)c1`, the results for the EC50 (in [2]; with Streptococcus) were 1.63 µM (active) and 3.66 µM (active), respectively. Regarding `Cc1ccc(C(=O)N2CCOCC2)cc1Cl`, the 50% effective concentration (EC50) (in [2]; on Streptokinase A; in the test with Streptococcus) was > 150 µM (not active) in each case.

As for `O=C(c1ccco1)N(CCCN1CCOCC1)c1nc(-c2ccc(F)cc2)cs1`, the values for the EC50 in test [3] and in [4] were 1.28 µM (active) and 30.5 µM (active), respectively.

With `CCOC(=O)c1ccc(NC(=O)c2[nH]cnc2C(=O)NCCCCNC(=O)c2nc[nH]c2C(=O)Nc2ccc(C(=O)OCC)cc2)cc1`, in test [1], the AC50 is 2.51 µM (active). For `CC(/C=C/c1ccc(N(C)C)cc1)=N\NC1=NC(=O)CC(C(=O)Nc2ccccc2)S1` (stereo not given), the EC50 in [2] is 2.94 µM (active); on Streptokinase A, > 150 µM (not active); with Streptococcus, 9.04 µM (active). As to `COc1cccc(/C=N/NC(=O)CNC(=O)c2cccs2)c1O`, the AC50 in the test on INS1 is 7.39 µM (active). Take `Fc1ccc(Nc2nc(N/N=C/c3ccco3)nc(N3CCCCC3)n2)cc1`: the EC50 was 2.88 µM (active) in test [3] and 9.91 µM (active) in [4]. Consider `C/C(=N\Nc1nc(C(C)(C)C)cs1)c1ccccc1`, for which the values for the EC50 in test [3] and in [4] were 0.673 µM (active) and > 30 µM (not active), respectively. Regarding `COc1ccc(C(=O)N/N=C(\C)Cn2cnc([N+](=O)[O-])n2)cc1`, the EC50 in test [3] is 1.03 µM (active); in test [4] it was > 60 µM (not active).
